Patent US20130164813A1, “Method for Inhibiting Transglutaminase 2 Activity Using 2-alkyloxy-3-phenylethynyl-4a,5-dihydropyrido[2,3-b]pyrazine Derivatives” (DONGGUK UNIVERSITY INDUSTRY-ACADEMIC COOPERATION FOUNDATION, priority 2011, published 2013)

Tests used:
[1] = target: T1, Transglutaminase 2 (Cavia cutleri, UniProt P08587); experiment: In vitro assay for inhibitory effect on TGase 2 ([1,4-14C] putrescine incorporation into succinylated casein); assay type: biochemical
T1 construct: purchased Sigma-Aldrich T5398
T1 sequence (P08587 1-690): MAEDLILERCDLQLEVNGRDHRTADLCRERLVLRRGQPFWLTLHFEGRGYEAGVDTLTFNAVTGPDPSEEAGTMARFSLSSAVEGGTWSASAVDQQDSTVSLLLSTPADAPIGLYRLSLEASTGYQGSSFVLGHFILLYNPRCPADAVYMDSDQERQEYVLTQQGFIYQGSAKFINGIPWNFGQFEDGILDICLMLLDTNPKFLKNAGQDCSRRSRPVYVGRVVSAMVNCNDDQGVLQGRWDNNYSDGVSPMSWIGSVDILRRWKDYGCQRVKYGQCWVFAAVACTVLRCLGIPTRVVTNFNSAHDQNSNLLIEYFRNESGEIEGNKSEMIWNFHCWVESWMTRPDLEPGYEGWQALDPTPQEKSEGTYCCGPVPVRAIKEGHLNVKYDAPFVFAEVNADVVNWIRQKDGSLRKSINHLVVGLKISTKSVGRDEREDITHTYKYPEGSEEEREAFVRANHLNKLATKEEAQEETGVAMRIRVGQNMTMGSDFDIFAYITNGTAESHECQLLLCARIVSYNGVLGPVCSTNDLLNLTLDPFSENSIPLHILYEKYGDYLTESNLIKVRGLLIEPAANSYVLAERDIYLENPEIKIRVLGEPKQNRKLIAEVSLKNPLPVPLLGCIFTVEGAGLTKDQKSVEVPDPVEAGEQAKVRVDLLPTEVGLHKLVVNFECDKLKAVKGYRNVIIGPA
Protocol: In vitro Assay for Inhibitory effect of 2-alkyloxy-3-phenylethynyl-4a,5-dihydropyrido[2,3-b]pyrazine derivative on TGase 2.
Method. […] Succinylated casein was purchased from Calbiochem (Cat. No. 573464), and 1 g of the powder was dissolved in 50 ml of a reaction buffer solution containing 5 mM DTT (0.1 M Tris-acetate (pH 8.0), 10 mM CaCl2, 0.15 M NaCl, 1.0 mM EDTA). This solution was stored in a deep freezer for further use. [1,4-14C] Putrescine dihydrochloride was purchased from GE Healthcare (Cat. No. CFA301), and the stock solution was diluted with distilled water to yield a radiological dose of 5 μCi/ml. Transglutaminase 2 was purchased from Sigma-Aldrich (Cat. No. T5398), and diluted with distilled water to yield a final concentration of 1 unit/ml. 2-Alkyloxy-3-phenylethynyl-4a,5-dihydropyrido[2,3-b]pyrazine derivative was dissolved at a concentration of 1 mM to prepare its stock solution, and the stock solution was diluted with DMSO to prepare solutions having various concentrations.
450 μl of succinylated casein solution and 50 μl of [1,4-14C] putrescine dihydrochloride solution were mixed together to prepare a substrate solution. 96 μl of the reaction buffer, 3 μl of the stock solution of the compounds of the present invention, and 1 μl of the stock solution of transglutaminase were mixed together to prepare each sample, followed by incubation at 37° C. for 10 min. 500 μl of the substrate solution and 100 μl of sample solution were mixed well, and the mixture was incubated at 37° C. for 2 hrs and then the reaction terminated by adding 4.5 ml of cold (4° C.) 7.5% TCA. The final solution was stored at 4° C. for 1 hr. The TCA-protein precipitates were filtered through a GF/glass fiber filter, washed with 25 ml of cold 5% TCA, and dried. Radioactivity of cross-linked protein was measured using a β-counter (Beckman Coulter), and compensated by the activity of DMSO-control group as a standard. The activity of transglutaminase was represented by the measured values.

[2] = tested on: 786-O; experiment: SRB test, renal cancer cell line 786-O; assay type: cell-based; conditions: Homo sapiens, 786-0, 48 hours, read-out: IG50 (×E−7)
Protocol: (§1) Test of Anti-cancer efficacy in the Cancer cell line. In order to examine anti-cancer efficacy of 2-alkyloxy-3-phenylethynyl-4a,5-dihydropyrido[2,3-b]pyrazine derivatives, Eight renal cancer cell lines were treated to perform an SRB test. In order to compare the anti-cancer efficacy, sutent® (Pfizer) was used for comparison.
(§2) 1) Method (SRB Test). The cancer cell lines were cultured in an RPMI 1640 medium containing 5% fetal bovine serum and 2 mM L-glutamine. The cancer cells were inoculated into a 96 well microtiter plate at a density of 5,000 or 40,000 cells/well. The cells were incubated at 37° C., 5% CO2, 95% air and 100% humidity for 24 hours prior to drug treatment.
(§3) After 24 hours, the cells were fixed with TCA at the time of drug addition (Tz). The drug was treated by 10-fold or log scale serial dilutions, and the efficacy was examined at a concentration of 5 point or more. After drug treatment, the cells were incubated for 48 hours. […] Bound stain was subsequently solubilized with trizma base, and the absorbance was read at 515 nm.
(§4) Growth inhibitory efficacy was measured by using the seven absorbance measurements. [time zero, (Tz), control growth, (C), and test growth in the presence of drug at the five concentration levels (Ti)], the percentage growth was calculated at each of the drug concentrations levels. […]

[3] = tested on: ACHN; experiment: SRB test, renal cancer cell line ACHN; assay type: cell-based; conditions: Homo sapiens, 48 hours, read-out: IG50 (×E−7)
Protocol: as §1, §2, §3, §4

[4] = tested on: A498; experiment: SRB test, renal cancer cell line A498; assay type: cell-based; conditions: Homo sapiens, A498, 48 hours, read-out: IG50 (×E−7)
Protocol: as §1, §2, §3, §4

[5] = tested on: CAKI-I; experiment: SRB test, renal cancer cell line CAKI-I; assay type: cell-based; conditions: 48 hours, read-out: IG50 (×E−7)
Protocol: as §1, §2, §3, §4

[6] = tested on: RXF393; experiment: SRB test, renal cancer cell line RXF393; assay type: cell-based; conditions: Homo sapiens, RXF 393, RXF393, 48 hours, read-out: IG50 (×E−7)
Protocol: as §1, §2, §3, §4

[7] = tested on: SN12C; experiment: SRB test, renal cancer cell line SN12C; assay type: cell-based; conditions: Homo sapiens, 48 hours, read-out: IG50 (×E−7)
Protocol: as §1, §2, §3, §4

[8] = tested on: TK10; experiment: SRB test, renal cancer cell line TK10; assay type: cell-based; conditions: Homo sapiens, TK-10, TK10, 48 hours, read-out: IG50 (×E−7)
Protocol: as §1, §2, §3, §4

[9] = tested on: US31; experiment: SRB test, renal cancer cell line US31; assay type: cell-based; conditions: 48 h, read-out: IG50 (×E−7)
Protocol: as §1, §2, §3, §4

[10] = tested on: renal cancer cell lines; experiment: SRB test, eight renal cancer cell lines together; assay type: cell-based
Protocol: as §1, §2, §3, §4

[11] = tested on: MDA-MB-231 cells; experiment: Anti-cancer efficacy on MDA231 breast cancer cell line by animal study (subcutaneous xenograft); assay type: in vivo; conditions: 4 mg/kg, compared to the cisplatin-treated group, FIGS. 3 and 4
Protocol: Evaluation of Anti-cancer efficacy of TGase 2 inhibitor on MDA231 breast cancer cell line by animal study.
MDA-MB-231 cells were cultured in a DMEM medium containing 10% FBS.
8×10^6 of MDA-MB-231 cells were subcutaneously injected into 7-week-old female Balb/c-nude mice. Four TGase inhibitors and doxorubicin were co-administered, and the effects were examined Group 1: saline. […] Group 3: 2-alkyloxy-3-phenylethynyl-4a,5-dihydropyrido[2,3-b]pyrazine derivative (4 mg/kg).
The prepared cancer cell, MDA-MB231/luciferase (8×10^6 cells/head) was subcutaneously injected into animals 7 days after their arrival. When a volume of the injected cancer cells reached 100 mm3, drug treatment was started.
After injection of MDA-MB-231, when a volume of the injected tumor reached 100 mm3, drug treatment was performed. After 3-4 weeks, the mice were sacrificed.
After the tumor volume reached 100 mm3, the size was measured three times per week during the drug treatment period. The tumor volume was calculated as ‘long axis×long axis×short axis/2’.

Row | SMILES | inhibition at 10 µM [1] | also measured
1 | C(#Cc1nc2ncccc2nc1OCCN1CCCC1)c1ccccc1 [Example 1, 3-phenylethynyl-2-(2-(pyrrolidin-1-yl)ethoxy)pyrido[2,3-b]pyrazine] | 91% | IC50 ([1]; FIG. 1): 33.8 nM; IC50 [2]: 225 nM; IC50 [3]: 137 nM; IC50 [4]: 5.61 µM; IC50 [5]: 71 nM; IC50 [6]: 179 nM; IC50 [7]: 186 nM; IC50 [8]: 529 nM; IC50 [9]: 5.49 µM; GI50 ([10]; eight renal cancer cell lines, SRB, read-out: Average GI50 over all cell lines): 430 nM; anti-cancer efficacy compared with SUTENT ([10]; renal cancer cell line, SRB growth rate, FIG. 2): better than that of SUTENT®; reduction in the tumor size [11]: the best effect of a reduction in the tumor size
2 | C(#Cc1nc2ncccc2nc1OCCN1CCCCC1)c1ccccc1 [Example 2, 3-phenylethynyl-2-(2-(piperidin-1-yl)ethoxy)pyrido[2,3-b]pyrazine] | 83% | –
3 | C(#Cc1nc2ncccc2nc1OCCN1CCOCC1)c1ccccc1 [Example 3, 4-(2-(3-(phenylethynyl)pyrido[3,2-b]pyrazin-2-yloxy)ethyl)morpholine] | 47% | –
4 | C(#Cc1nc2ncccc2nc1OCCCN1CCCC1)c1ccccc1 [Example 4, 3-(phenylethynyl)-2-(3-(pyrrolidin-1-yl)propoxy)pyrido[3,2-b]pyrazine] | 59% | –
5 | C(#Cc1nc2ncccc2nc1OCCCN1CCCCC1)c1ccccc1 [Example 5, 3-(phenylethynyl)-2-(3-(piperidin-1-yl)propoxy)pyrido[3,2-b]pyrazine] | 54% | –
6 | C(#Cc1nc2ncccc2nc1OCCCN1CCOCC1)c1ccccc1 [Example 6, 4-(3-(3-(phenylethynyl)pyrido[3,2-b]pyrazin-2-yloxy)propyl)morpholine] | 32% | –
7 | O=C1CCCN1CCCOc1nc2cccnc2nc1C#Cc1ccccc1 [Example 7, 1-(3-(3-(phenylethynyl)pyrido[3,2-b]pyrazin-2-yloxy)propyl)pyrrolidin-2-one] | 43% | –
8 | CN(C)c1ccc(C#Cc2nc3ncccc3nc2OCCN2CCCC2)cc1 [Example 8, N,N-dimethyl-4-((2-(2-(pyrrolidin-1-yl)ethoxy)pyrido[3,2-b]pyrazin-3-yl)ethynyl)benzenamine] | 68% | –
9 | CN(C)c1ccc(C#Cc2nc3ncccc3nc2OCCN2CCCCC2)cc1 [Example 9, N,N-dimethyl-4-((2-(2-(piperidin-1-yl)ethoxy)pyrido[3,2-b]pyrazin-3-yl)ethynyl)benzenamine] | 57% | –
10 | COc1ccc(C#Cc2nc3ncccc3nc2OCCN2CCCC2)cc1 [Example 14, 3-(4-methoxyphenylethynyl)-2-(2-pyrrolidin-1-ylethoxy)pyrido[3,2-b]pyrazine] | 64% | –
11 | COc1ccc(C#Cc2nc3ncccc3nc2OCCN2CCCCC2)cc1 [Example 15, 3-(4-methoxyphenylethynyl)-2-(2-piperidin-1-ylethoxy)pyrido[3,2-b]pyrazine] | 51% | –
12 | Cc1ccc(C#Cc2nc3ncccc3nc2OCCN2CCCC2)cc1 [Example 21, 2-(2-(pyrrolidin-1-yl)ethoxy)-3-(p-tolylethynyl)pyrido[3,2-b]pyrazine] | 52% | –
13 | CN(C)c1ccccc1C#Cc1nc2ncccc2nc1OCCN1CCCC1 [Example 42, N,N-dimethyl-2-((2-(2-(pyrrolidin-1-yl)ethoxy)pyrido[3,2-b]pyrazin-3-yl)ethynyl)benzenamine] | 63% | –
14 | CN(C)c1ccccc1C#Cc1nc2ncccc2nc1OCCN1CCCCC1 [Example 43, N,N-dimethyl-2-((2-(2-(piperidin-1-yl)ethoxy)pyrido[3,2-b]pyrazin-3-yl)ethynyl)benzenamine] | 54% | –
